Measured values from PubChem BioAssay (NCI).
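Values below derive from 48-hour exposures of cells grown in 96-well plates, with endpoints linearly interpolated between the two concentrations bracketing the appropriate inhibition level. At the GI50, growth is halved. TGI: total growth inhibition.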

What was measured:
Test in all cases: DTP human tumour cell line panel, 48 h
LOX IMVI melanoma = system: LOX IMVI melanoma
M14 melanoma = system: M14 melanoma
MDA-MB-231 breast = system: MDA-MB-231 breast
HT29 colon = system: HT29 colon
IGROV1 ovarian = system: IGROV1 ovarian
SK-MEL-28 melanoma = system: SK-MEL-28 melanoma
NCI-H522 lung = system: NCI-H522 lung
UACC-257 melanoma = system: UACC-257 melanoma
HS 578T breast = system: HS 578T breast
UO-31 renal = system: UO-31 renal
COLO 205 colon = system: COLO 205 colon
HL-60(TB) leukemia = system: HL-60(TB) leukemia
786-0 renal = system: 786-0 renal
CAKI-1 renal = system: CAKI-1 renal
KM12 colon = system: KM12 colon
UACC-62 melanoma = system: UACC-62 melanoma
MOLT-4 leukemia = system: MOLT-4 leukemia
OVCAR-5 ovarian = system: OVCAR-5 ovarian
OVCAR-4 ovarian = system: OVCAR-4 ovarian
HCC-2998 colon = system: HCC-2998 colon
MDA-MB-435 = system: MDA-MB-435
SNB-75 CNS = system: SNB-75 CNS
RXF 393 renal = system: RXF 393 renal
SK-MEL-5 melanoma = system: SK-MEL-5 melanoma
SR leukemia = system: SR leukemia
DU-145 prostate = system: DU-145 prostate
HCT-116 colon = system: HCT-116 colon
SN12C renal = system: SN12C renal
SW-620 colon = system: SW-620 colon
BT-549 breast = system: BT-549 breast
SK-MEL-2 melanoma = system: SK-MEL-2 melanoma
MALME-3M melanoma = system: MALME-3M melanoma
OVCAR-8 ovarian = system: OVCAR-8 ovarian
SF-539 CNS = system: SF-539 CNS
EKVX NSCLC = system: EKVX NSCLC
SK-OV-3 ovarian = system: SK-OV-3 ovarian
NCI-H460 lung = system: NCI-H460 lung
NCI-H23 lung = system: NCI-H23 lung
K-562 leukemia = system: K-562 leukemia
SF-295 CNS = system: SF-295 CNS
A498 renal = system: A498 renal
RPMI-8226 leukemia = system: RPMI-8226 leukemia
U251 CNS = system: U251 CNS
NCI/ADR-RES ovarian = system: NCI/ADR-RES ovarian
NCI-H226 lung = system: NCI-H226 lung
MCF7 breast = system: MCF7 breast
T-47D breast = system: T-47D breast
CCRF-CEM leukemia = system: CCRF-CEM leukemia
TK-10 renal = system: TK-10 renal
HOP-92 NSCLC = system: HOP-92 NSCLC
HCT-15 colon = system: HCT-15 colon
HOP-62 NSCLC = system: HOP-62 NSCLC
A549 NSCLC = system: A549 NSCLC
SF-268 CNS = system: SF-268 CNS
ACHN renal = system: ACHN renal
SNB-19 CNS = system: SNB-19 CNS
OVCAR-3 ovarian = system: OVCAR-3 ovarian
PC-3 prostate = system: PC-3 prostate

## O=C(CCC1OCCO1)Nc1cc(NCc2ccccc2)ccc1OCc1ccccc1
LOX IMVI melanoma
  TGI: > 100 µM
M14 melanoma
  TGI: > 100 µM
MDA-MB-231 breast
  TGI: > 100 µM
HT29 colon
  TGI: 96.6 µM
IGROV1 ovarian
  TGI: > 100 µM
SK-MEL-28 melanoma
  TGI: > 100 µM
NCI-H522 lung
  TGI: 78.6 µM
UACC-257 melanoma
  TGI: 53.3 µM
HS 578T breast
  TGI: > 100 µM
UO-31 renal
  TGI: > 100 µM
COLO 205 colon
  TGI: 52.1 µM
HL-60(TB) leukemia
  TGI: 97.3 µM
786-0 renal
  TGI: > 100 µM
CAKI-1 renal
  TGI: 71.3 µM
KM12 colon
  TGI: 97.9 µM
UACC-62 melanoma
  TGI: > 100 µM
MOLT-4 leukemia
  TGI: 81.5 µM
OVCAR-5 ovarian
  TGI: > 100 µM
OVCAR-4 ovarian
  TGI: > 100 µM
HCC-2998 colon
  TGI: > 100 µM
MDA-MB-435
  TGI: 63.9 µM
SNB-75 CNS
  TGI: > 100 µM
RXF 393 renal
  TGI: 77.8 µM
SK-MEL-5 melanoma
  TGI: 35.3 µM
SR leukemia
  TGI: 92 µM
DU-145 prostate
  TGI: > 100 µM
HCT-116 colon
  TGI: > 100 µM
SN12C renal
  TGI: > 100 µM
SW-620 colon
  TGI: > 100 µM
BT-549 breast
  TGI: > 100 µM
SK-MEL-2 melanoma
  TGI: 49.7 µM
MALME-3M melanoma
  TGI: 62.7 µM
OVCAR-8 ovarian
  TGI: 58.6 µM
SF-539 CNS
  TGI: 94.6 µM
EKVX NSCLC
  TGI: 65.5 µM
SK-OV-3 ovarian
  TGI: > 100 µM
NCI-H460 lung
  TGI: > 100 µM
NCI-H23 lung
  TGI: > 100 µM
K-562 leukemia
  TGI: > 100 µM
SF-295 CNS
  TGI: > 100 µM
A498 renal
  TGI: > 100 µM
RPMI-8226 leukemia
  TGI: > 100 µM
U251 CNS
  TGI: > 100 µM
NCI/ADR-RES ovarian
  TGI: > 100 µM
NCI-H226 lung
  TGI: > 100 µM
MCF7 breast
  TGI: > 100 µM
T-47D breast
  TGI: > 100 µM
CCRF-CEM leukemia
  TGI: 45.7 µM
TK-10 renal
  TGI: 83.4 µM
HOP-92 NSCLC
  TGI: 73.3 µM
HCT-15 colon
  TGI: > 100 µM
HOP-62 NSCLC
  TGI: > 100 µM
A549 NSCLC
  TGI: > 100 µM
SF-268 CNS
  TGI: > 100 µM
ACHN renal
  TGI: > 100 µM
SNB-19 CNS
  TGI: > 100 µM

## CCOc1cc(C(C)(C)C)ccc1C1=N[C@@](C)(c2ccc(Cl)cc2)[C@@](C)(c2ccc(Cl)cc2)N1C(=O)N1CCN(CCCS(C)(=O)=O)CC1
LOX IMVI melanoma
  GI50: 0.438 µM
  TGI: 11 µM
M14 melanoma
  GI50: 3.6 µM
  TGI: > 100 µM
MDA-MB-231 breast
  GI50: 3.41 µM
  TGI: 12.9 µM
HT29 colon
  GI50: 2.96 µM
  TGI: 9.28 µM
IGROV1 ovarian
  GI50: 1.4 µM
  TGI: 10.9 µM
SK-MEL-28 melanoma
  GI50: 6.1 µM
  TGI: 19.3 µM
NCI-H522 lung
  GI50: 7.11 µM
  TGI: 39.2 µM
UACC-257 melanoma
  GI50: 2.02 µM
  TGI: 15.8 µM
HS 578T breast
  GI50: 9.26 µM
  TGI: 35.2 µM
UO-31 renal
  GI50: 0.401 µM
  TGI: 8.59 µM
COLO 205 colon
  GI50: 9.53 µM
  TGI: 32.6 µM
HL-60(TB) leukemia
  GI50: 2.48 µM
  TGI: 6.15 µM
786-0 renal
  GI50: 3.2 µM
  TGI: 15.4 µM
CAKI-1 renal
  GI50: 0.214 µM
  TGI: 5.15 µM
KM12 colon
  GI50: 11.4 µM
  TGI: 28 µM
UACC-62 melanoma
  GI50: 0.708 µM
  TGI: 6.41 µM
MOLT-4 leukemia
  GI50: 0.375 µM
  TGI: > 100 µM
OVCAR-5 ovarian
  GI50: 8.41 µM
  TGI: 20.8 µM
OVCAR-4 ovarian
  GI50: 7.33 µM
  TGI: 22.5 µM
HCC-2998 colon
  GI50: 2.51 µM
  TGI: 6.95 µM
OVCAR-3 ovarian
  GI50: 11.5 µM
  TGI: 25.7 µM
MDA-MB-435
  GI50: 5.21 µM
  TGI: 19.4 µM
SNB-75 CNS
  GI50: 3.64 µM
  TGI: 17.3 µM
RXF 393 renal
  GI50: 3.39 µM
  TGI: 14.4 µM
SK-MEL-5 melanoma
  GI50: 1.63 µM
  TGI: 3.21 µM
SR leukemia
  GI50: 0.236 µM
  TGI: > 100 µM
DU-145 prostate
  GI50: 11 µM
  TGI: 25.6 µM
SN12C renal
  GI50: 3.84 µM
  TGI: 14.5 µM
SW-620 colon
  GI50: 11.2 µM
  TGI: 29.3 µM
BT-549 breast
  GI50: 2.76 µM
  TGI: 15.1 µM
SK-MEL-2 melanoma
  GI50: 9.14 µM
  TGI: 30 µM
MALME-3M melanoma
  GI50: 0.274 µM
  TGI: 11.3 µM
OVCAR-8 ovarian
  GI50: 12 µM
  TGI: > 100 µM
SF-539 CNS
  GI50: 5.12 µM
  TGI: 16.9 µM
EKVX NSCLC
  GI50: 4.3 µM
  TGI: 23.7 µM
SK-OV-3 ovarian
  GI50: 14 µM
  TGI: 32.9 µM
NCI-H460 lung
  GI50: 0.895 µM
  TGI: 11.8 µM
NCI-H23 lung
  GI50: 10.4 µM
  TGI: 24.9 µM
K-562 leukemia
  GI50: 3.71 µM
  TGI: > 100 µM
SF-295 CNS
  GI50: 4.13 µM
  TGI: 15.2 µM
A498 renal
  GI50: 1.64 µM
  TGI: 9.46 µM
RPMI-8226 leukemia
  GI50: 3.13 µM
  TGI: > 100 µM
U251 CNS
  GI50: 12.2 µM
  TGI: 45.9 µM
NCI/ADR-RES ovarian
  GI50: 4.97 µM
  TGI: 18.9 µM
NCI-H226 lung
  GI50: 0.462 µM
  TGI: 2.11 µM
MCF7 breast
  GI50: 0.456 µM
  TGI: 3.89 µM
T-47D breast
  GI50: 9.21 µM
  TGI: 61.4 µM
CCRF-CEM leukemia
  GI50: 4.1 µM
  TGI: > 100 µM
TK-10 renal
  GI50: 10.3 µM
  TGI: 46.9 µM
HOP-92 NSCLC
  GI50: 2.31 µM
  TGI: 8.17 µM
HCT-15 colon
  GI50: 2.3 µM
  TGI: 6.01 µM
HOP-62 NSCLC
  GI50: 11.4 µM
  TGI: 29.3 µM
A549 NSCLC
  GI50: 1.01 µM
  TGI: 19.4 µM
SF-268 CNS
  GI50: 9.42 µM
  TGI: 37.6 µM
ACHN renal
  GI50: 0.505 µM
  TGI: 11.3 µM
SNB-19 CNS
  GI50: 5.12 µM
  TGI: 17.8 µM

## CC(CO)(CO)NCCCCn1ccc2c1C(=O)c1c(c(O)c3ccccc3c1O)C2=O
M14 melanoma
  GI50: 1.73 µM
  TGI: 3.41 µM
HS 578T breast
  GI50: 30.3 µM
  TGI: 73.4 µM
UO-31 renal
  GI50: 4.18 µM
  TGI: > 100 µM
COLO 205 colon
  GI50: 3.01 µM
  TGI: 31.3 µM
HL-60(TB) leukemia
  GI50: 2.37 µM
  TGI: > 100 µM
786-0 renal
  GI50: 10.9 µM
  TGI: 26.9 µM
CAKI-1 renal
  GI50: 13.6 µM
  TGI: 30.4 µM
KM12 colon
  GI50: 1.4 µM
  TGI: 2.7 µM
OVCAR-5 ovarian
  GI50: 16 µM
  TGI: 29.5 µM
HCC-2998 colon
  GI50: 6.2 µM
  TGI: 20.9 µM
OVCAR-3 ovarian
  GI50: 5.78 µM
  TGI: 29.1 µM
MDA-MB-435
  GI50: 1.76 µM
  TGI: 3.56 µM
RXF 393 renal
  GI50: 4.49 µM
  TGI: 31.7 µM
DU-145 prostate
  GI50: 16.1 µM
  TGI: 30.5 µM
HCT-116 colon
  GI50: 1.58 µM
  TGI: 2.92 µM
SN12C renal
  GI50: 11.2 µM
  TGI: 24.2 µM
SW-620 colon
  GI50: 5.47 µM
  TGI: 29.2 µM
BT-549 breast
  GI50: 19.9 µM
  TGI: 51.2 µM
MALME-3M melanoma
  GI50: 1.69 µM
  TGI: 7.38 µM
OVCAR-8 ovarian
  GI50: 3.48 µM
  TGI: 12 µM
PC-3 prostate
  GI50: 1.52 µM
  TGI: 3.11 µM
SF-539 CNS
  GI50: 15.3 µM
  TGI: 47.1 µM
EKVX NSCLC
  GI50: 17.8 µM
  TGI: 44.5 µM
SK-OV-3 ovarian
  GI50: 27.4 µM
  TGI: 98.7 µM
NCI-H460 lung
  GI50: 13.7 µM
  TGI: 42.9 µM
NCI-H23 lung
  GI50: 15.8 µM
  TGI: 36.4 µM
SF-295 CNS
  GI50: 11.2 µM
  TGI: 26.6 µM
A498 renal
  GI50: 22.3 µM
  TGI: 51 µM
NCI/ADR-RES ovarian
  GI50: 2.36 µM
  TGI: 6.02 µM
MCF7 breast
  GI50: 17.1 µM
  TGI: 53.4 µM
T-47D breast
  GI50: 21.1 µM
  TGI: 65.8 µM
TK-10 renal
  GI50: 1.51 µM
  TGI: 4.57 µM
HOP-92 NSCLC
  GI50: 5.73 µM
  TGI: 22.7 µM
HOP-62 NSCLC
  GI50: 14 µM
  TGI: 28.9 µM
SF-268 CNS
  GI50: 14.4 µM
  TGI: 40.9 µM
ACHN renal
  GI50: 6.27 µM
  TGI: > 100 µM
SNB-19 CNS
  GI50: 18.4 µM
  TGI: 42.2 µM
